Measured values as given in PMC6149822, “A New Series of Pyrrole-Based Chalcones: Synthesis and Evaluation of Antimicrobial Activity, Cytotoxicity, and Genotoxicity” (Molecules : A Journal of Synthetic Chemistry and Natural …, 2017).
Converted amounts (≈) assume the structure as drawn.

How the values were obtained:
C. albicans (ATCC 90028) = assay: Microdilution susceptibility assay (MIC); format: cell-based; settings: Candida albicans, ATCC90028
Protocol: (§1) Compounds 1–10 were screened for their antimicrobial activity against gram-negative bacteria, gram-positive bacteria, and yeasts, listed in Table 1. Bacteria were grown in Mueller-Hinton Broth and yeasts were grown in Sabouraud Dextrose Broth (SDB) during experiments. Overnight cultures were prepared routinely by subculturing of stock culture onto Mueller-Hinton Agar for bacteria and Sabouraud Dextrose Agar for yeasts.
(§2) Microdilution susceptibility assay was used for the determination of antibacterial and anticandidal efficacy of compounds 1–10. Chloramphenicol and ketoconazole were used as positive controls for bacteria and yeasts, respectively. All experiments were designed according to the Clinical Laboratory Standards Institute (CLSI). All chemicals were dissolved in dimethyl sulfoxide (DMSO) to obtain stock solution (10 mg/mL). Two-fold serial dilutions (800, 400, 200...0.78 µg/mL) of the compounds were prepared from stock solutions with dH2O. 100 µL of each solution was transferred to 96-well microtiter plates and 100 µL of 10^6 CFU/mL of bacteria and 2 × 10^3 of CFU/mL yeast were added to related wells. As negative controls, wells including microorganisms without agents and wells including agents without microorganisms were used. The plates were kept at 35 °C for 18–20 h and the growth was determined with resazurin (20 mg/mL). Assays were carried out in triplicate.

E. coli (ATCC 25922) = assay: Microdilution susceptibility assay (MIC); format: cell-based; settings: Escherichia coli, ATCC25922
Protocol: as §1, §2

E. faecalis (ATCC 29212) [1] = assay: Microdilution susceptibility assay (MIC); format: cell-based; settings: Enterococcus faecalis, ATCC29212
Protocol: as §1, §2

E. faecalis (ATCC 51299) = assay: Microdilution susceptibility assay (MIC); format: cell-based; settings: Enterococcus faecalis, ATCC51299
Protocol: as §1, §2

[2] = tested on: K. pneumoniae (ATCC 700603); assay: Microdilution susceptibility assay (MIC); format: cell-based; settings: Klebsiella pneumoniae, ATCC700603
Protocol: as §1, §2

S. aureus (ATCC 25923) = assay: Microdilution susceptibility assay (MIC); format: cell-based; settings: Staphylococcus aureus, ATCC25923
Protocol: as §1, §2

C. glabrata (ATCC 90030) = assay: Microdilution susceptibility assay (MIC); format: cell-based, Candida glabrata; settings: Nakaseomyces glabratus, ATCC90030
Protocol: as §1, §2

[3] = tested on: C. parapsilosis (ATCC 22019); assay: Microdilution susceptibility assay (MIC); format: cell-based, Candida parapsilosis; settings: Lodderomyces parapsilosis, ATCC22019
Protocol: as §1, §2

E. faecalis (ATCC 29212) [4] = assay: ATP luminescence microbial cell viability assay; format: cell-based, Enterococcus faecalis; settings: 24 h treatment, result in words
Protocol: (§3) A model from BioTek Instruments Inc. combined with a BacTiter-Glo^TM Microbial Cell Viability assay (Promega Corp., Madison, WI, USA) was used to provide a sensitive and rapid method for determining the number of viable microbial cells in culture based on quantitation of the ATP present. […] After incubation, cultures were added into the wells (final concentration of bacteria was 5 × 10^5 CFU/mL and 2.5 × 10^6 CFU/mL for yeasts). After adding the BacTiter reagent, incubation time for bacteria and yeasts was 5 min and 15 min, respectively.
(§4) The assay generates a “glow-type” luminescent signal, produced by the luciferase reaction. Briefly, after chemicals and strains were incubated for 24 h, 100 µL of the culture was taken from each well and mixed with the same volume of the BacTiter-Glo™ reagent in a white, opaque-walled microtiter plate. Control wells containing medium without cells were prepared to obtain a value for background luminescence. Cells without compound were used as an ATP-positive control. The microplates were further incubated under agitation for 7 min. Bioluminescence was recorded in a multi-detection microplate reader (BioTek Synergy 2 Multi-Mode Microplate Reader, BioTek Instruments, Winooski, VT, USA). In Figure 3, results were given as percentage of untreated control, which is set at 100%. Experiments were performed in triplicate and each sample was measured in four replicates.

C. albicans = assay: ATP luminescence microbial cell viability assay; format: cell-based, Candida albicans; settings: 24 h treatment, result in words
Protocol: as §3
(§5) The assay generates a “glow-type” luminescent signal, produced by the luciferase reaction. Briefly, after chemicals and strains were incubated for 24 h, 100 µL of the culture was taken from each well and mixed with the same volume of the BacTiter-Glo™ reagent in a white, opaque-walled microtiter plate. Control wells containing medium without cells were prepared to obtain a value for background luminescence. Cells without compound were used as an ATP-positive control. The microplates were further incubated under agitation for 7 min. Bioluminescence was recorded in a multi-detection microplate reader (BioTek Synergy 2 Multi-Mode Microplate Reader, BioTek Instruments, Winooski, VT, USA). […] Experiments were performed in triplicate and each sample was measured in four replicates.

C. glabrata = assay: ATP luminescence microbial cell viability assay; format: cell-based, Candida glabrata; settings: 24 h treatment, result in words
Protocol: as §3, §4

C. krusei = assay: ATP luminescence microbial cell viability assay; format: cell-based, Candida krusei; settings: 24 h treatment, result in words
Protocol: as §3, §5

[5] = tested on: A549 human lung adenocarcinoma cell line; assay: MTT assay; format: cell-based; settings: Homo sapiens, A549
Protocol: (§6) The anticancer effects of compounds 1–10 on A549 human lung adenocarcinoma (ATCC® CCL-185™), HepG2 human hepatocellular carcinoma (ATCC® HB-8065™), and C6 rat glioma (ATCC® CCL107™) cell lines were assessed using 3-(4,5-Dimethylthiazol-2-yl)-2,5-diphenyltetrazolium bromide (MTT) assay, whereas the selectivity of compounds 1–10 was tested using NIH/3T3 mouse embryonic fibroblast cell line (ATCC® CRL-1658™, London, UK). All cell lines were incubated according to the supplier’s recommendations. The cells were seeded as 1 × 10^4 cells into each well of the 96-well plates. MTT assay was performed as previously described. The compounds were tested between the concentrations equal to 1 mM and 0.000316 mM (1.0, 0.316, 0.10, 0.0316, 0.01, 0.00316, 0.001, 0.000316 mM). Stock solutions of compounds were prepared in dimethyl sulfoxide (DMSO) and further dilutions were made with fresh culture medium. The final DMSO concentration was under 1% [34] and cisplatin was used as a positive control. Inhibition % was calculated for each concentration according to the formula below, and IC50 values were determined by plotting a dose–response curve of inhibition % versus compound concentrations tested. All experiments were performed in quadruplicate.Inhibition % = 100 − [(ODtest compound − ODblank/ODsolvent control − ODblank)] × 100(1)

C6 rat glioma cell line = assay: MTT assay; format: cell-based; settings: Rattus norvegicus, C6
Protocol: as §6

[6] = tested on: HepG2 human hepatocellular carcinoma cell line; assay: MTT assay; format: cell-based; settings: Homo sapiens, HepG2
Protocol: as §6

[7] = tested on: NIH/3T3 mouse embryonic fibroblast cell line; assay: MTT assay; format: cell-based; settings: Mus musculus, NIH3T3, healthy cells for selectivity
Protocol: as §6

SMILES | MIC (C. albicans (ATCC 90028)) [µg/mL] | MIC (E. coli (ATCC 25922)) [µg/mL] | MIC (E. faecalis (ATCC 29212) [1]) [µg/mL] | MIC (E. faecalis (ATCC 51299)) [µg/mL] | MIC [2] [µg/mL] | MIC (S. aureus (ATCC 25923)) [µg/mL] | MIC (C. glabrata (ATCC 90030)) [µg/mL] | MIC [3] [µg/mL] | antimicrobial activity in ATP bioluminescence assay (E. faecalis (ATCC 29212) [4]) | antifungal activity in ATP bioluminescence assay (C. albicans) | antifungal activity in ATP bioluminescence assay (C. glabrata) | antifungal activity in ATP bioluminescence assay (C. krusei) | IC50 [5] [µg/mL] | IC50 (C6 rat glioma cell line) [µg/mL] | IC50 [6] [µg/mL] | IC50 [7] [µg/mL]
Cn1cccc1C(=O)C=Cc1ccc(-c2ccc(Cl)cc2)o1 [Compound 7, 1-(1-Methyl-1H-pyrrol-2-yl)-3-(5-(4-chlorophenyl)furan-2-yl)prop-2-en-1-one] | 50 (≈ 160 µM) | 400 (≈ 1280 µM) | 100 (≈ 321 µM) | 200 (≈ 642 µM) | 100 (≈ 321 µM) | 400 (≈ 1280 µM) | 100 (≈ 321 µM) | 100 (≈ 321 µM) | sensitive | no statistically significant effects | antifungal activity close to ketoconazole | more statistically significant antifungal activity against C. krusei than ketoconazole | 98 (≈ 314 µM) | 311 (≈ 998 µM) | 23 (≈ 73.8 µM) | 40 (≈ 128 µM)
Cn1cccc1C(=O)C=Cc1ccc(-c2cc(Cl)ccc2Cl)o1 [Compound 9, 1-(1-Methyl-1H-pyrrol-2-yl)-3-(5-(2,5-dichlorophenyl)furan-2-yl)prop-2-en-1-one] | 200 (≈ 578 µM) | 100 (≈ 289 µM) | 200 (≈ 578 µM) | 400 (≈ 1160 µM) | 200 (≈ 578 µM) | 200 (≈ 578 µM) | 100 (≈ 289 µM) | 50 (≈ 144 µM) |  |  |  | more statistically significant antifungal activity against C. krusei than ketoconazole | > 346 | 109 (≈ 315 µM) | 101 (≈ 292 µM) | 109 (≈ 315 µM)
